We go through 1 compound from paper PMC4022547 (Molecular Brain, 2014).

For one assay, the target named is T1, hα6(R96H) + hβ4 nAChR (Homo sapiens, UniProt P30926+Q15825, R96H).
T1 construct: Full length capped mRNA (i.e., cRNA) was transcribed from linearized plasmids; expressed in transfected cells; host or cells: Xenopus laevis oocytes injected with cRNA
Briefly: Oocyte two-electrode voltage clamp. It is filed as cell-based. The following applies: 1000 μM ACh; 1 μM atropine co-applied. On the procedure:
(§1) We planned to introduce identical amounts of cRNA, presumably producing equal amounts of each subunit protein, into oocytes largely due to lack of information about the levels of mRNA for each subunits that compose α6*-nAChRs in neurons or other cells. Concentrations of cRNAs for each nAChR α and β subunits (WT, mutant or variant) were adjusted to 500 ng μL^−1. We provisionally assumed that hα6 or its variants in association with hβ2 or hβ4 subunits would form complexes having 2:3 and/or 3:2 ratios of the indicated subunits and that oocytes also injected with WT or mutant form of β3 subunits (i.e., β3^V9’S) would express nAChR with 2:2:1 ratios of α:β:(β3 or β3^V9’S) subunits. For expression of binary nAChRs (i.e., two subunit containing nAChRs; α + β but not β3) cRNA mixtures were prepared by mixing 1 μL of cRNA for each subunit and an additional μL of RNAse free water (i.e., total volume 3 μL). Similarly for expression of ternary nAChRs [i.e., three subunit containing nAChRs; (α + β) + (β3 or β3^V9’S)] cRNA mixtures were prepared by mixing 1 μL of cRNA for each subunit. Several preparations of each mixture were prepared and stored at −80°C until further use. Injection of 138 nL of cRNA, out of 3 μL cRNA mixtures, into each oocyte would deliver ~23 ng of cRNA for each subunit whether binary or ternary nAChRs are expressed.
(§2) Two to 5 days after injection, oocytes were placed in a small-volume chamber and continuously perfused with OR2. The chamber was grounded through an agarose bridge. The oocytes were voltage-clamped at −70 mV (unless otherwise noted) to measure agonist or antagonist induced currents using Axoclamp 900A and pClamp 10.2 software (Molecular Devices, Sunnyvale, CA). The current signal was low-pass filtered at 10 Hz with the built-in low-pass Bessel filter in the Axoclamp 900A and digitized at 20 Hz with Axon Digidata1440A and pClamp10. […] Drugs (agonists and antagonists) were prepared daily in OR2. Drug was applied using a Valvelink 8.2 perfusion system (Automate scientific, Berkeley, CA). […] Then for the purpose of comparison electrophysiological recordings were performed in a given day in a given batch of oocytes following the same order of injections. […] All hβ4*-nAChR recordings were done in similar conditions to facilitate comparisons between hα6hβ4- and hα6hβ4hβ3-nAChRs. All electrophysiological measurements were conducted or checked in at least two batches of oocytes.
(§3) Raw data was collected and processed in part using pClamp 10.2 (Molecular Devices, Sunnyvale, CA), Origin 7.5 (OriginLab Corporation, Northampton, MA) and a spreadsheet (Excel; Microsoft, Bellevue, WA). Peak current amplitudes (Imax) are reported as mean ± SEM (for results from at least three oocytes, i.e., n = 3).
A general note: In two-electrode clamp one electrode senses voltage and the other passes current.

For assay [1], the target named is T2, hα6(R87C) + WT hβ2 + hβ3^V9’S nAChR (Homo sapiens, UniProt P17787+Q15825, R87C).
T2 construct: Full length capped mRNA (i.e., cRNA) was transcribed from linearized plasmids; expressed in transfected cells; host or cells: Xenopus laevis oocytes injected with cRNA
T2 sequence (Q15825 26-494 R87C): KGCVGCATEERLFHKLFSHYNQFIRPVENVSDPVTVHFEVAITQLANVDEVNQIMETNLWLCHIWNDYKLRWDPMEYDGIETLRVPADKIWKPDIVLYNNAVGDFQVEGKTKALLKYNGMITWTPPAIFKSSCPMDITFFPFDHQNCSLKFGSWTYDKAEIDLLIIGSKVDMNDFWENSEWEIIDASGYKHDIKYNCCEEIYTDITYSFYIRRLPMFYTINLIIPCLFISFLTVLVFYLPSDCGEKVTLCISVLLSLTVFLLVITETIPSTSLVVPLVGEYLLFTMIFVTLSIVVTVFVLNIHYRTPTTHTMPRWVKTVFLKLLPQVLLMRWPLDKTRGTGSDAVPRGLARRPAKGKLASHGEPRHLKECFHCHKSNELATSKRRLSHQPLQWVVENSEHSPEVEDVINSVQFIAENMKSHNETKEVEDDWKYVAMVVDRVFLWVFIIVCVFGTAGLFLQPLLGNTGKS
T2 sequence (P17787 26-502): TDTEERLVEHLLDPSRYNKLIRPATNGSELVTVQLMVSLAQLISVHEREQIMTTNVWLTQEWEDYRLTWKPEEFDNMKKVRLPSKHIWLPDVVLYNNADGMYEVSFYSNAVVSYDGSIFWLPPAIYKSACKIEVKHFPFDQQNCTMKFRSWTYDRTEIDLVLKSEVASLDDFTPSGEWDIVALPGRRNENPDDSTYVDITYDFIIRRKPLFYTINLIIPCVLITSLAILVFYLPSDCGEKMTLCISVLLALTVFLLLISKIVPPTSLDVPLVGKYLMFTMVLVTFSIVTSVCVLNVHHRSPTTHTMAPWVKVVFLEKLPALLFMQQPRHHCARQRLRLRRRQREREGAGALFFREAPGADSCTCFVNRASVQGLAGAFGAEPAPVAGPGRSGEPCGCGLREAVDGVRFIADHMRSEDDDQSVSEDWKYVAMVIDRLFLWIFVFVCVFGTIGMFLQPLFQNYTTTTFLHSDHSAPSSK
T2 sequence (Q05901 25-458 V273S partner limits assumed): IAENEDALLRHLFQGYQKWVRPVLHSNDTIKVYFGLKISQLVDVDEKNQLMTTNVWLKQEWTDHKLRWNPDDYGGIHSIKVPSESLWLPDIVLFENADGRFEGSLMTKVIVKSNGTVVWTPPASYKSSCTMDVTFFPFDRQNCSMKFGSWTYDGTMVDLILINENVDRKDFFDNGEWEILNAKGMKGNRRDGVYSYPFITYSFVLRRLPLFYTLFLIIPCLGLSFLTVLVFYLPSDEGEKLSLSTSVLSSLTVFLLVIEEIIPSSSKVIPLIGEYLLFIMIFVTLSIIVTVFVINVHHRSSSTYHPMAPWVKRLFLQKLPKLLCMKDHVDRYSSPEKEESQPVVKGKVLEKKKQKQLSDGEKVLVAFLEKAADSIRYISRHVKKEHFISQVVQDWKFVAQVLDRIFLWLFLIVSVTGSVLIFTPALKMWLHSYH
Put plainly: Oocyte two-electrode voltage clamp. The assay is classed as cell-based. The following applies: ACh, nicotine or atropine; hβ2 type not specified. As for the experimental part: as §1, §2, §3

Assay [2] deals with hα6(D199Y) + hβ4 + hβ3 nAChR (Homo sapiens, UniProt P30926+Q15825, D199Y). Briefly: Oocyte two-electrode voltage clamp. The assay is classed as cell-based. On the procedure:
as §1, §2, §3

The target of the next assay is hα6hβ4hβ3^V9’S-nAChR (Homo sapiens, UniProt P30926+Q05901+Q15825, V273S). The following applies: nicotine (100 μM), ACh (100 μM) or atropine (1000 μM); spontaneously opening channels. As for the experimental part: as §1, §2
Chain of hα6hβ4hβ3^V9’S-nAChR (Q15825 26-494): as the sequence (Q15825 26-494 R87C) above, with C62R counted along it
Chain of hα6hβ4hβ3^V9’S-nAChR (P30926 22-498): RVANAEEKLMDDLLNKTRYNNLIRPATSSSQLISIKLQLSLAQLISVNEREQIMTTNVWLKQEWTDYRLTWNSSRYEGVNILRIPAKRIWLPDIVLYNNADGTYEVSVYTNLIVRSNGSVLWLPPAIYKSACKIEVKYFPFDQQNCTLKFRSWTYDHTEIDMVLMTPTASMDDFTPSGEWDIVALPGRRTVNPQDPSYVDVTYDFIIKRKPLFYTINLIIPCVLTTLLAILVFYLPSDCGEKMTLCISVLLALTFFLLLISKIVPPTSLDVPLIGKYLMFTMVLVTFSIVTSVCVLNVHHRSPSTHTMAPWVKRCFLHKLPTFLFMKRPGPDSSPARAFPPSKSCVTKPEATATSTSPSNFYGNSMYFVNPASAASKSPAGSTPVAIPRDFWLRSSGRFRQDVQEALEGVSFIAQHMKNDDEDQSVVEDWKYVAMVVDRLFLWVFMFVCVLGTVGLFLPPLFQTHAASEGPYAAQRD
Chain of hα6hβ4hβ3^V9’S-nAChR (Q05901 22-458 V273S): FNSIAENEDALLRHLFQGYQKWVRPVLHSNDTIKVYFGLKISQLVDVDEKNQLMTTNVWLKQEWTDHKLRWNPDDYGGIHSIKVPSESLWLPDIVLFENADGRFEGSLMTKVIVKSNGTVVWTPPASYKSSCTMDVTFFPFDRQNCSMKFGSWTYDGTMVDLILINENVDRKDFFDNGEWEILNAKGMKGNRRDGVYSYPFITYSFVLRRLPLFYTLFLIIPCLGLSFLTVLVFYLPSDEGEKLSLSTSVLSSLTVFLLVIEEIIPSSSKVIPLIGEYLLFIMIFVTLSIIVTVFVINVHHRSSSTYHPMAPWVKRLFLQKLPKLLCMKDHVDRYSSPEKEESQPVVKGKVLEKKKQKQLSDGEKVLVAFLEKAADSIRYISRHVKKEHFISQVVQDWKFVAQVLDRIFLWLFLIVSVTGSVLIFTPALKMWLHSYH
Assay [3] has as its target hα6^D57Nhβ4hβ3^V9’S-nAChR (Homo sapiens, UniProt P30926+Q15825, D57N). Particulars: nicotine (100 μM), ACh (100 μM) or atropine (1000 μM). On the procedure:
as §1, §2

Assay [4] addresses hα6^R87C + hβ4 + hβ3^V9’S nAChR (Homo sapiens, UniProt P30926+Q15825, R87C). Particulars: nicotine (100 μM), ACh (100 μM) or atropine (1000 μM). On the procedure: as §1, §2
The target of assay [5] is hα6^N171Khβ4β3^V9’S-nAChR (Homo sapiens, UniProt P30926+Q15825, N171K). Particulars: nicotine (100 μM), ACh (100 μM) or atropine (1000 μM). On the procedure: as §1, §2
Chain of hα6^N171Khβ4β3^V9’S-nAChR (Q15825 26-494 N171K): as the sequence (Q15825 26-494 R87C) above, with C62R, N146K counted along it
Chain of hα6^N171Khβ4β3^V9’S-nAChR (P30926 22-498): as the sequence (P30926 22-498) above
Chain of hα6^N171Khβ4β3^V9’S-nAChR (Q05901 25-458 V273S partner limits assumed): as the sequence (Q05901 25-458 V273S partner limits assumed) above
Assay [6] deals with hα6^S156Rhβ4hβ3^V9’S-nAChR (Homo sapiens, UniProt P30926+Q15825, S156R). The following applies: nicotine (100 μM), ACh (100 μM) or atropine (1000 μM). As for the experimental part: as §1, §2
Chain of hα6^S156Rhβ4hβ3^V9’S-nAChR (Q15825 26-494 S156R): as the sequence (Q15825 26-494 R87C) above, with C62R, S131R counted along it
Chain of hα6^S156Rhβ4hβ3^V9’S-nAChR (P30926 22-498): as the sequence (P30926 22-498) above
Chain of hα6^S156Rhβ4hβ3^V9’S-nAChR (Q05901 25-458 V273S partner limits assumed): as the sequence (Q05901 25-458 V273S partner limits assumed) above

Chain of hα6(D199Y) + hβ4 + hβ3 nAChR (Q15825 26-494 D199Y): as the sequence (Q15825 26-494 R87C) above, with C62R, D174Y counted along it
Chain of hα6(D199Y) + hβ4 + hβ3 nAChR (P30926 22-498): as the sequence (P30926 22-498) above
Chain of hα6(D199Y) + hβ4 + hβ3 nAChR (Q05901 25-458 partner limits assumed): as the sequence (Q05901 25-458 V273S partner limits assumed) above, with S249V counted along it
Chain of hα6^D57Nhβ4hβ3^V9’S-nAChR (Q15825 26-494 D57N): as the sequence (Q15825 26-494 R87C) above, with D32N, C62R counted along it
Chain of hα6^D57Nhβ4hβ3^V9’S-nAChR (P30926 22-498): as the sequence (P30926 22-498) above
Chain of hα6^D57Nhβ4hβ3^V9’S-nAChR (Q05901 25-458 V273S partner limits assumed): as the sequence (Q05901 25-458 V273S partner limits assumed) above
T1 sequence (Q15825 26-494 R96H): as the sequence (Q15825 26-494 R87C) above, with C62R, R71H counted along it
T1 sequence (P30926 22-498, stated change not applied): as the sequence (P30926 22-498) above
Chain of hα6^R87C + hβ4 + hβ3^V9’S nAChR (Q15825 26-494 R87C): as the sequence (Q15825 26-494 R87C) above
Chain of hα6^R87C + hβ4 + hβ3^V9’S nAChR (P30926 22-498): as the sequence (P30926 22-498) above
Chain of hα6^R87C + hβ4 + hβ3^V9’S nAChR (Q05901 25-458 V273S partner limits assumed): as the sequence (Q05901 25-458 V273S partner limits assumed) above

For `CC(=O)OCC[N+](C)(C)C` [ACh, acetylcholine], the “Mean Imax ± SE (nA)” value at hα6(R96H) + hβ4 nAChR is on record as 31 ± 4 nA; in assay [2] (1000 μM ACh, 1 μM atropine co-applied), 494 ± 51 nA. Moreover, the current response result in assay [1] and in assay [4] was “not obtained” throughout. For the same compound, the “nH ± SE (Hill coefficient)” value in assay [2] is given as 1.1 ± 0.07. Moreover, the “current response (direction)” value is given as “robust inward current” at hα6hβ4hβ3^V9’S-nAChR, “outward reversible currents” in assay [3], “outward reversible currents” in assay [5] and “outward reversible currents” in assay [6].
